Source: patent US7476689B2, “Therapeutic compositions for intranasal administration which include KETOROLAC” (Recordati Ireland Limited, priority 1991, dated 2009)

Tests used:
[1] = nasal absorption: KTM plasma levels by HPLC after intranasal or intravenous administration; format: in vivo, White New Zealand rabbits; conditions: rabbit
Description: Each rabbit received a active preparation in one nostril and its placebo in the other. Each animal received 2 mg/kg of KETOROLAC® tromethamine (KTM), twice a day for seven days and once on the eighth day. The control rabbits were treated, after seven days of nasal administration of physiologic solution, with 2 mg/kg of KTM by intravenous route once. After the last treatment plasma samples were collected at several times and KTM plasma levels were investigated by HPLC. After the last blood sample was drawn all the animals were killed by excision of femoral arteries, after having been completely anaesthetized. Nasal turbinates, larynx and pharynx were removed and subjected to histological examinations.

patients = conditions: cited from earlier work

| concentration at 0.083 h ([1]; New Zealand White, plasma, intravenous 2 mg/kg once, 0.083 hours) | concentration at 0.25 h ([1]; New Zealand White, plasma, intravenous 2 mg/kg once, 0.25 hours) | concentration at 0.5 h ([1]; New Zealand White, plasma, intravenous 2 mg/kg once, 0.5 hours) | concentration at 1 h ([1]; New Zealand White, plasma, intravenous 2 mg/kg once, 1 hour) | concentration at 2 h ([1]; New Zealand White, plasma, intravenous 2 mg/kg once, 2 hours) | concentration at 3 h ([1]; New Zealand White, plasma, intravenous 2 mg/kg once, 3 hours) | concentration at 5 h ([1]; New Zealand White, plasma, intravenous 2 mg/kg once, 5 hours) | AUC(0-t) ([1]; New Zealand White, plasma, intravenous 2 mg/kg, mean of three animals, read-out: AUC0-5, average) | Plasma Concentration of KTM, Mean ([1]; intravenous 2 mg/kg once, sampling time Basal) | Compound | patients with one or more undesirable side effects (patients; intramuscular route, 20 doses of 30 mg each over five days) | patients with gastrointestinal disorders (patients; oral administration) | incidence of side effects (patients; oral route for a few days) |
| --- | --- | --- | --- | --- | --- | --- | --- | --- | --- | --- | --- | --- |
| 14500 ng/mL | 7680 ng/mL | 3880 ng/mL | 1700 ng/mL | 403 ng/mL | 120 ng/mL | 20 ng/mL | 7360 ng·h/mL | 0 ng/mL | O=C(c1ccccc1)c1ccc2n1CCC2C(=O)O (stereo not drawn) [KTM, KETOROLAC® tromethamine] | – | – | – |
| – | – | – | – | – | – | – | – | – | O=C(c1ccccc1)c1ccc2n1CCC2C(=O)O (stereo not drawn) [KETOROLAC®, 5-benzoyl-2,3-dihydro-1H-pyrrolizine-1-carboxylic acid] | about 10% | up to 50% | around 32% |
